Assay results reported in ChEMBL document CHEMBL1255178, “4-methylpteridinones as orally active and selective PI3K/mTOR dual inhibitors” (Bioorg Med Chem Lett, 2010).

Legend:
[1] = Antitumor activity against human U87 cells xenografted in mouse at 3 mg/kg, po after 10 days; type: functional, U-87MG ATCC
[2] = target: Serine/threonine-protein kinase mTOR (Homo sapiens, UniProt P42345)
[3] = Antitumor activity against human U87 cells xenografted in mouse at 10 mg/kg, po after 10 days; type: functional, U-87MG ATCC
[4] = Antitumor activity against human U87 cells xenografted in mouse at 20 mg/kg, po after 10 days; type: functional, U-87MG ATCC

Structure (SMILES)	Ki [2] [nM]	further results
COc1ccc(-c2nc3c(C)nc(N)nc3n([C@H]3CC[C@H](O)CC3)c2=O)cn1	6.8	Activity [1]: 11%; Activity [3]: 58%; Activity [4]: 75%
Cc1ccc(-c2nc3c(C)nc(N)nc3n(C3CCOCC3)c2=O)cn1	5	
Cc1ccc(-c2nc3c(C)nc(N)nc3n([C@H]3CC[C@H](O)CC3)c2=O)cn1	0.85	
COc1ccc(-c2cc3c(C)nc(N)nc3n(C(C)C)c2=O)cn1	5	
COc1ccc(-c2cc3c(OC)nc(N)nc3n(C(C)C)c2=O)cn1	> 4000	
Cc1nc(N)nc2c1nc(-c1ccn[nH]1)c(=O)n2C(C)C	6	
Cc1nc(N)nc2c1nc(-c1cnn[nH]1)c(=O)n2C(C)C	113	
COc1ncc(-c2nc3c(C)nc(N)nc3n(C(C)C)c2=O)cn1	18	
Cc1ccc(-c2nc3c(C)nc(N)nc3n([C@H]3CC[C@H](OCCO)CC3)c2=O)cn1	5.11	
Cc1nc(N)nc2c1nc(-c1cc[nH]n1)c(=O)n2C1CCOCC1	0.8	
